Measurements as given in US20040081618A1, “Method of screening physiologically active substance” (priority 2000, published 2004).

How the values were obtained:
HL-60 cells [1] = assay: Gene expression analysis with Human Cytokine CHIP (ver. 1.0) in TPA-treated neutrophile-like differentiated HL-60 cells; type: cell-based; details: genes showing fluctuation by TPA; 100 μL of 4 mM DGE aqueous solution added to 10 mL of 10^6 cells/mL, 6 hours, then TPA, total RNA 4 hours thereafter
Description: HL-60 cells (ATCC CCL-240) were suspended in RPMI 1640 medium (manufactured by Bio Whittaker, 12-702F) containing 10% fetal bovine serum (manufactured by JRH Biosciences) and 1.3% dimethyl sulfoxide, and the cells were cultured at 37° C. for one week in the presence of 5% carbon dioxide gas to induce differentiation to neutrophile-like cells.
The cells obtained as described above were collected by centrifugation, and suspended in 10% fetal bovine serum-containing RPMI 1640 medium so as to have a concentration of 10^6 cells/mL, and 10-mL portions of the cells were added to a 10-cm petri dish. […]
Twenty-five micrograms of each of the total RNAs obtained as described above and 100 pg of λ poly A^+ RNA-A (manufactured by Takara Shuzo Co., Ltd., TX802) were subjected to synthesis reaction of fluorescence-labeled cDNA by using RNA Fluorescence Labeling Core Kit (manufactured by Takara Shuzo Co., Ltd., TX807) and 1 mM FluoroLink Cy3-dUTP or Cy5-dUTP (manufactured by Amersham-Pharmacia Biotech, PA53022(Cy3), PA55022(Cy5) in accordance with the instruction for the kit and the resulting cDNA was purified. The solutions of fluorescence-labeled DNA were mixed in the combination of Table 4, and the mixture was subjected to a chloroform-isoamyl alcohol (24:1) extraction. […]

HL-60 cells [2] = assay: Analysis of expression using DNA microarray (740 clones from DNA microbeads screening) in TPA-treated differentiated HL-60 cells; type: cell-based, human; details: 4 mM DGE 100 μL in 10 mL, 6 hours, then TPA, RNA 4 hours thereafter, expression ratio 0.55 or less or 1.8 or more
Description: The reaction for PCR was carried out by using a primer pair having the sequences shown in SEQ ID NO: 10 and SEQ ID NO: 11 of Sequence Listing, with the 740 clones of plasmids obtained in Example 3 as a template. Next, the amplified product was purified by ethanol precipitation, and thereafter the product was dissolved in 1×SolutionT (manufactured by Takara Shuzo Co., Ltd.) so as to have a concentration of 0.3 μg/μl, and this solution was used as a spotting solution. The spotting solution was spotted on MAS-coated slide glass (manufactured by Matsunami Glass), amino-group carrying slide glass, by using Affymetrix 417 Arrayer (manufactured by Affymetrix). The spotted glass was incubated at 37° C. and humidity of 90% for 1 hour, and thereafter cross-linked by UV irradiation at energy of 60 mJ/cm^2. Further, the slide glass was washed once with 0.2% SDS and then twice with distilled water, and thereafter immersed in a blocking solution comprising 2.75 g of succinic anhydride, 162.5 ml of N-methyl-2-pyrrolidone and 15 ml of 1 M borate buffer (pH 8.0) for 20 minutes, to block free amino groups. Next, the slide glass was washed twice with distilled water and subjected to thermal denaturation in boiling water for 2 minutes, and rapidly cooled in 100% ethanol at ice temperature. Thereafter, the slide glass was dried by a low-speed centrifugation at 1000 rpm or so, and used for the following experiment. […]
A PolyA(+) RNA was prepared from HL-60 cells prepared in item (2) of Example 4 by using Trizol Reagent (manufactured by Gibco BRL) and Oligotex-dT30 <Super> (manufactured by Takara Shuzo Co., Ltd.) in accordance with the protocol for each of the kits. Next, each of cDNAs labeled with Cy3 and Cy5 was prepared by using RNA Fluorescence Labeling Core Kit (M-MLV Version) (manufactured by Takara Shuzo Co., Ltd.) in accordance with the protocol for the kit with 1.0 μg of PolyA(+) RNA as a template, and their cDNAs were mixed in the combinations of the sample RNA shown in Table 8.
Next, hybridization of the DNA microarray prepared in item (1) of Example 4 with the above-mentioned mixtures (4 kinds) of Cy3-labeled cDNA and Cy5-labeled cDNA was carried out in accordance with the instruction manual of IntelliGene (manufactured by Takara Shuzo Co., Ltd.), and the array was subjected to procedures of washing and drying. Subsequently, the fluorescence images were obtained for Cy3 (excitation wavelength: 532 nm, detection wavelength: 570 nm) and Cy5 (excitation wavelength: 635 nm, detection wavelength: 660 nm) by using Affymetrix 428 Array Scanner (manufactured by Affymetrix). […]

[3] = tested on: plastic adherent monocytes; assay: Gene expression analysis with Human Cytokine CHIP (ver. 2.0) in LPS-treated plastic adherent monocytes; type: cell-based
Description: Four-hundred milliliters of blood was collected from a human normal individual donor. The collected blood was diluted 2-folds with PBS(−), overlaid on Ficoll-paque (manufactured by Pharmacia), and centrifuged at 500×g for 20 minutes. The peripheral blood mononuclear cells (PBMCs) in the intermediate layer was collected with a pipette, and washed with RPMI 1640 medium (manufactured by Bio Whittaker). The collected PBMCs were suspended in a storage solution of 90% FCS (manufactured by JRH Biosciences)/10% dimethyl sulfoxide, and stored in liquid nitrogen. During the experiment, these stored PBMCs were rapidly melted in water bath at 37° C., and washed with RPMI 1640 medium containing 10 μg/ml Dnase (manufactured by Calbiochem). Thereafter, the number of living cells was calculated by trypan blue staining method, and subjected to each experiment.
PBMCs were suspended in RPMI 1640 medium containing 5% human serum of blood type-AB, 0.1 mM nonessential amino acid, 1 mM sodium pyruvate, 2 mM L-glutamine (hereinabove manufactured by Bio Whittaker), 10 mM HEPES (manufactured by nakalai tesque), and 1% streptomycin-penicillin (manufactured by Gibco BRL) (hereinafter simply referred to as “5HRPMI medium”) so as to have a concentration of 1×10^7 cells/mL. Thereafter, 15 ml of the suspension was spread on a 100-mm petri dish (manufactured by Asahi Techno Glass), and the cells were incubated in a wet-type incubator at 37° C. in the presence of 5% CO2 for 1.5 hours. […]
The synthesis of cDNA was carried out in accordance with the method described in item (2) of Example 1, provided that the combination of the solutions of fluorescence-labeled DNA was in accordance with that shown in Table 6. […]
The fluorescence signal was scanned for each spot of the above-mentioned chip by using Affymetrix 428 Array Scanner (manufactured by Takara Shuzo Co., Ltd.). The fluorescence signal was quantified for each spot by using ImaGene (manufactured by Takara Shuzo Co., Ltd., BD001) on the bases of the image data. […]

[4] = clones decreased by treatment with TPA
[5] = clones increased by treatment with TPA

For `O=C1C=CC(CO)OC1O` [DGE, L-glycero-1,5-epoxy-1αβ,6-dihydroxy-cis-hex-3-en-2-one], the “Expression of Group A-1 genes (BMP-6, CCR-1, HGF, ICAM-1, IL-1β, IL-16, LIF, Osteopontin, TNF-α, Neuropilin-1; Table 5)” value (HL-60 cells [1]) was “suppressed”, the “Expression of Group B-1 genes (Heme oxygenase-1, Thioredoxin reductase-1; Table 5)” value (HL-60 cells [1]) was “accelerated” and the “Expression of Group C-3 clones (NDRG1, ADAR, SF3B2, ILF3, VARS2, SEQ ID NO: 12; Tables 9, 11)” value (HL-60 cells [2]; [4]) was “further decreased”. The “Expression of Group D-3 clones (EEF1A1, RPL17, RPL24, SFRS2, TPT1, UQCRB, RPS15A, RPL27; Tables 10, 11)” value (HL-60 cells [2]; [4]) was “further increased”, the “Expression of Group A-3 clones (STAT6, FLJ22298 fis clone HRC04637; Tables 9, 11)” value (HL-60 cells [2]; [5]) was “further decreased” and the “Expression of Group B-3 clones (SUI1, HSPC014; Tables 9, 11)” value (HL-60 cells [2]; [5]) was “further increased”. The “Increase by LPS in expression of Group E genes (IL2RA, IL6, CD166, IRF1, IL15RA, NFKB1, CASP1, IL1B, TNF-α, GRO1, IL1A, INHBA, IL7R, PBEF, LARC, IL8; Table 7)” value ([3]; 10 μL of 20 mM DGE aqueous solution in 10 mL medium, 4 hours, then LPS, total RNA 4 hours thereafter) was “suppressed”, the “Expression of Group G genes (Heme oxygenase-1 HMOX1; Table 7)” value ([3]; DGE+LPS versus negative control) was “increased” and the “Expression of Group F genes (CSF1R, CXCR4, ENG; Table 7)” value ([3]; genes not fluctuating by LPS, DGE+LPS versus negative control) was “decreased”.
